# According to patent publication US6677431B2, “Design, preparation, and properties of antibacterial β-peptides” (The Trustees of the University of Pennsylvania, priority 1999, dated 2004):
# Assays:
# micF-lux fusion = experiment: Stress-induced response assay, induction of micF-lux fusion; assay type: cell-based; conditions: for induction of micF-lux: Group II peptides; for micF gene fusion response: Table 4, regulatory gene Rob
# Procedure: Stress-induced response and growth inhibition assays were carried out on samples of four of the β-peptide and compared to known polycationic peptides.
# Polymyxin B was tested both rich, LB, medium and defined, M9, medium. The other natural peptides were tested in LB medium.
# The β-peptides were tested in M9 medium. * In LB medium (data from Oh et al. Biochem. Biophys. Acta. 2000,1463: 43-54)
# However, similar to the magainins, no induction of the micF-lux fusion was observed. Also, the minimum inhibitory concentrations (MIC's) were determined to be higher than those reported in the published manuscript.
# Samples of these β-peptides 1 and 2 were evaluated in the stress-induced response assays.
# (§1) The biolumenescence data result from test carried out according to U.S. Pat. No. 5,683,868, Highly Sensitive Method For Detecting Environmental Insults, issued Nov. 4, 1997 to LaRossa et al., the entire contents of the disclosure of are hereby incorporated by reference, The tests described in this patent permit antibacterial properties of peptides or any other materials to be assessed. […] Along these lines, FIG. 5 illustrates a relationship between relative light units and minutes of exposure of bacteria to the various materials in the legend. P×B represents polymyxin, a known antibacterial material. In the graph, a decrease in RULs corresponds to a decrease in bacteria. […]
# recA-lux bioluminescence = experiment: Inhibition of recA-lux bioluminescence in M9 media; assay type: cell-based; conditions: inhibition of recA-lux bioluminescence in M9 media (Van Dyk lab)
# Procedure: ∇in M9 medium (data from Hamuro et al., ref. 5) # In M9 medium.+Hemolysis experiments were performed by incubating a 0.25% suspension of human RBc's in 10 mM Tris buffer containing […] at pH 7.0 with varying amounts of peptide. The hemolytic dose required to lyse 50% of the RBC's is reported as the HD50.
# as §1
# [1] = Peptide binding to phospholipid bilayers by CD, SOPS/SOPC (1:9) vesicles; conditions: single site binding fit, 42 (peptide 1) or 52 (peptide 2) lipids per peptide
# Procedure: The binding affinity of peptides to phospholipid bilayers was measured using CD spectra of the peptide in the presence of varying lipid vesicle concentrations. Peptides show little structure from CD spectra in water. Upon addition of lipid vesicles, the ellipiticity at 214 nm increased as a consequence of helix formation due to interactions between the peptide and lipid surface. Small unilamellar vesicles (SUV) of SOPC/SOPS were prepared by sonicating lipid large vesicles in 10 mM phosphate buffer, pH 7. CD spectra were taken before and after the addition of aliquots of vesicle to 2 mL peptide solution in 10 mM phosphate buffer, pH 7.
# The dissociation constant Kd was determined from equation (1) for single site binding:
# [P](R−1)−c/n−Kd+c/(nR)=0 (1)
# where [P] and c are peptide and lipid molar concentrations, respectively, n is the number of lipids per peptide binding site. R is the fraction of peptide bound, which can be calculated from equation (2): […]
# To get better understanding of the binding mechanism of the peptides to lipid membranes, the dissociation constants (Kd) of peptide 1 and peptide 2 to small unilamellar lipid vesicles (SUV) were measured. Since binding to DPC micelle drives peptide 1 and peptide 2 from random coil conformation to helical conformation, the binding equilibrium can be monitored by CD spectroscopy. […]
# [2] = Peptide-induced leakage of liposomal contents (calcein release)
# Procedure: The leakage of liposome contents to the external media was monitored by the release of calcein encapsulated in vesicles. The vesicle was prepared by reverse-phase evaporation in 10 mM sodium phosphate buffer, pH 7, followed by single extrusion through one 0.2 μm pore size polycarbonate filter. The non trapped calcein was removed by eluting through a size exclusion Sephadex G-25 column, with 90 mM sodium chloride, 10 mM sodium phosphate, pH 7. The leaking kinetics was monitored by follow the increase of calcein fluorescence intensity at 520 nm (excitation at 490 nm) due to release of self-quenching. The experiment was carried out on a Hitachi F-2500 Fluoresence spectrophotometer, with a slit width of […]. The initial rate was calculated from the linear part of the %leakage vs. time curve.
# The mechanism of how the antibacterial peptides work is still on debate. However, it is generally believed they kill the cell by disturbing cell membranes. The experiment of peptide-induced leakage of liposomal contents is a direct way to monitor this process. Large unilammilar vesicles (LUV) of SOPS/SOPC (1:9) were used in the binding study. The leakage of encapsulated calcein was detected by its fluorescence at 515 nm. The fraction of bound lipid at different peptide concentration was calculated and overlaid in FIG. 4 as well. The lysis abilities of the two peptides are similar at low peptide concentration, and become quite different with increasing amount of peptide. […] With increase of peptide concentration, the leakage percentage increases quickly. For peptide 2, the leakage percentage jumps to 100% within the range between 0.05 μM and 0.14 μM where the corresponding fractions of lipid bound are about 10% 40%, respectively. […] The percentage of leakage increases to about 80% when the peptide concentration reaches 0.5 μM. The lysis ability stays at a plateau until the peptide concentration is pushed up to 2 μM, when about 60% of lipid molecules are bound to peptide molecules. […] The difference between the two peptides is even more obvious when looking at the leakage rate right after the addition of peptide to the vesicle solution, as shown in FIG. 3. The initial leakage rate for peptide 2 increases sharply when the peptide concentration increases from 0.14 μM to 0.19 μM. […] For peptide 1, the leakage initial rate increases in a continuous fashion, and 100% leakage is not complete until 300 s with 5.18 μM peptide.
Structure (SMILES),induction of micF-lux (micF-lux fusion),micF gene fusion response (micF-lux fusion),IC50 (recA-lux bioluminescence) [nM],Kd [1] [nM],time to 100% leakage ([2]; 5.18 μM peptide) [s],"lysis of the vesicle ([2]; at 285 seconds, 5 μM peptide)","percentage of leakage ([2]; at 285 seconds, peptide 0.5 μM)","percentage of leakage ([2]; at 285 seconds, peptide between 0.05 μM and 0.14 μM) [%]",time to complete lysis of the vesicle ([2]; peptide concentration higher than 0.5 μM) [s]
CC(C)[C@@H](CC(N)=O)NC(=O)C[C@H](CCCCN)NC(=O)C[C@H](C)NC(=O)C[C@@H](NC(=O)C[C@H](CCCCN)NC(=O)C[C@H](C)NC(=O)C[C@@H](NC(=O)C[C@H](CCCCN)NC(=O)C[C@H](C)NC(=O)C[C@@H](NC(=O)C[C@H](CCCCN)NC(=O)C[C@H](C)N)C(C)C)C(C)C)C(C)C [Peptide 1],induction,yes,10000,1400,300,Complete lysis,about 80%,–,–
CC(C)[C@@H](CC(N)=O)NC(=O)C[C@H](CCCCN)NC(=O)C[C@H](C)NC(=O)C[C@@H](NC(=O)C[C@H](CCCCN)NC(=O)C[C@H](C)NC(=O)C[C@@H](NC(=O)C[C@H](CCCCN)NC(=O)C[C@H](C)NC(=O)C[C@@H](NC(=O)C[C@H](CCCCN)NC(=O)C[C@H](C)NC(=O)C[C@@H](NC(=O)C[C@H](CCCCN)NC(=O)C[C@H](C)N)C(C)C)C(C)C)C(C)C)C(C)C [Peptide 2],induction,yes,3000,300,–,–,–,100,≤ 20
